According to EP4497440A1, “USE OF 7-TRIFLUOROMETHYL-7ALPHA,25-DIHYDROXYCHOLESTEROL IN THE TREATMENT AND MODULATION OF AUTOIMMUNE AND INFLAMMATORY DISEASES OF THE NERVOUS SYSTEM AND NEURODEGENERATIVE DISEASES” (Gdanski Uniwersytet Medyczny, priority 2023, dated 2025):

How the values were obtained:
[1] = in vivo, from reference [6]; cited from earlier work
[2] = system: mice in the cuprizone model; assay: Cuprizone model: luxol fast blue staining, lipoprotein (myelin) density in the corpus callosum; type: in vivo; details: 20 mg/kg subcutaneously once a day for 2 weeks after 9 weeks of cuprizone (group #5), compared to vehicle group #3
Source text: Measurement of lipoprotein density in myelin sheaths, taken on sections of brains of the mice in the cuprizone model. The mice in the cuprizone model subject were divided into 6 groups: • #1. control group: regular cuprizone-free chow for 9 weeks. The mice were euthanised after 9 weeks and tissue samples were taken for analysis. In these mice no removal of myelin sheaths occurred. • #2. control group with cuprizone: chow containing cuprizone for 9 weeks. The mice were euthanised after 9 weeks and tissue samples were taken for analysis. In the mice fed with chow containing cuprizone myelin sheaths were removed. • #3. vehicle control group - the mice were fed with chow containing cuprizone for 9 weeks, and then with regular chow without cuprizone for 2 weeks. Over the 2 weeks on regular show the mice in the vehicle control group were first injected with vehicle #1: DMSO, intraperitoneally, 150 µl once a day, and then with vehicle #2: canola oil, subcutaneously, 150 µl once a day. • #4. barbadin control group - the mice were fed with chow containing cuprizone for 9 weeks and then with regular chow without cuprizone for 2 weeks. Over the 2 weeks on regular chow the mice in this group were injected with barbadin 0.3 mg/kg, intraperitoneally, 150 µl once a day and then with vehicle #2: canola oil, subcutaneously, 150 µl once a day. • #5. oxysterol experimental group - the mice were fed with chow containing cuprizone for 9 weeks and then with regular chow without cuprizone for 2 weeks. […] Brain sections sampled from the mice were histochemically stained with luxol fast blue (Abcam, cat. No. Ab 150675), and the intensity (density) of the lipid staining in the corpus callosum was measured using the ImageJ software (ImageJ (nih.gov)). […]

lymphocytes = assay: Short-term pharmacology model: blood count after a single injection; type: in vivo, mice; details: single subcutaneous injection
Experimental: Mouse groups in the short-term pharmacology model (Fig 10): Control: one vehicle injection (canola oil). The number of lymphocytes in the group is marked on the graph with the transverse line. The vehicle injection was administered to the mice subcutaneously (100 µl), following which the mice were euthanized after 6 hours (8 mice), 12 hours (8 mice), 24 hours (8 mice), or 48 hours (8 mice).
The 0.8 mg/kg dose group: single injection with CF3-7α,25OHC at the dose of 0.8 mg/kg. The oxysterol injection was administered to the mice subcutaneously (100 µl), following which the mice were euthanized after 6 hours (8 mice), 12 hours (8 mice), 24 hours (8 mice), or 48 hours (8 mice).
The 4 mg/kg dose group: single injection with CF3-7α,25OHC at the dose of 4 mg/kg. The oxysterol injection was administered to the mice subcutaneously (100 µl), following which the mice were euthanized after 6 hours (8 mice), 12 hours (8 mice), 24 hours (8 mice), or 48 hours (8 mice).
The 20 mg/kg dose group: a single injection with CF3-7α,25OHC at the dose of 20 mg/kg. The oxysterol injection was administered to the mice subcutaneously (100 µl), following which the mice were euthanized after 6 hours (8 mice), 12 hours (8 mice), 24 hours (8 mice), or 48 hours (8 mice).
The 100 mg/kg dose group: a single injection with CF3-7α,25OHC at the dose of […]. […]

For `C[C@H](CCCC(C)(C)O)[C@H]1CC[C@H]2[C@H]3[C@H](CC[C@]12C)[C@@]1(C)CC[C@H](O)CC1=C[C@]3(O)C(F)(F)F` [CF3-7α,25OHC, cholestene-7β-trifluoromethyl,3β,7α,25-triol], the “in vivo half life” value [1] is listed as 12 h, the “lipoprotein density in the corpus callosum, higher by” value [2] is listed as 16% and the “myelin density / myelin regeneration in the corpus callosum” value [2] is listed as “increased”. The “myelin density / myelin regeneration in the corpus callosum” value ([2]; listed as CF3-7α25OHC) was “more efficient (or faster) myelin regeneration”, the “duration of the lymphocyte-reducing effect following administration” value (lymphocytes) was 24 h and the “lowest dose that reduces the level of lymphocytes” value (lymphocytes; doses 0.8, 4, 20, 100 mg/kg, blood count after 6, 12, 24 or 48 hours) was 4 mg/kg.
